From patent publication US8987193B2, “Nisin derivatives and the use thereof” (University College Cork—National University of Ireland, Cork, priority 2008, dated 2015)
Ends that are not written are not given here.

Key:
Assay in all cases: Deferred antagonism assay
Format in all cases: cell-based
Set-up in all cases: key: −, no inhibition; (+), clear zone directly above the colony; +, 1-5 mm zone; ++, 6-10 mm zone; +++, <10 mm zone
[1] = test system: Listeria monocytogenes 33115; details: nisin strain; L. monocytogenes 33115
Experimental: (§1) Deferred antagonism assays were performed by replicating strains on GM17 or GM17 x-gal agar plates and allowing them to grow overnight before overlaying with either GM17/BHI/TS/MH agar (0.75% w/v agar) seeded with the appropriate indicator strain. Zone size was calculated as the diameter of the zone of clearing minus the diameter of bacterial growth (5 mm) For higher throughput screening of N20PXX, XM21VX, XXK22T and XXX banks deferred antagonism assays were performed by replicating strains using a 96 pin replicator (Boekel) or spotting 5 μl of a fresh overnight culture on GM17 agar plates and allowing them to grow overnight. […] Additional sets of indicators were employed to further assess/reassess the bioactivity of a number of strains. […] For well-diffusion assays molten agar was cooled to 48° C. and seeded with the appropriate indicator strain. The inoculated medium was rapidly transferred into sterile Petri plates in 50 ml volumes, allowed to solidify and dried. Wells (4.6 mm in diameter) were then made in the seeded plates. Purified nisin and mutant nisins were resuspended in 0.005% acetic acid, serially diluted, 50 μl volumes were dispensed into the aforementioned wells and the plates incubated at 37° C. overnight. Bioactivity was expressed as arbitrary units/ml (AU/ml) and calculated as the reciprocal of the highest dilution that gave a definite zone multiplied by the conversion factor (i.e. 20 when 50 μl was used) (Ryan et al., 1996).

[2] = test system: Listeria monocytogenes SLCC 7194; details: nisin strain; L. monocytogenes SLCC 7194
Experimental: as §1

[3] = test system: Listeria monocytogenes 33068; details: nisin strain; L. monocytogenes 33068
Experimental: as §1

[4] = test system: Listeria monocytogenes 33083; details: nisin strain; L. monocytogenes 33083
Experimental: as §1

Substance	Activity score (zone) [1]	Activity score (zone) [2]	Activity score (zone) [3]	Activity score (zone) [4]
NisinA K22A (ITSISLCTPGCKTGALMGCNMATATCHCSIHVSK; not fully specified; also: lantibiotic: lanthionine rings and dehydro residues not placed; UniProt P13068 24-57, looked up, variant K22A) [nisin A derivative, hinge substitution K22A]	+ (+, 1-5 mm zone)	+ (+, 1-5 mm zone)	−	+ (+, 1-5 mm zone)
NisinA M21G (ITSISLCTPGCKTGALMGCNGKTATCHCSIHVSK; not fully specified; also: lantibiotic: lanthionine rings and dehydro residues not placed; UniProt P13068 24-57, looked up, variant M21G) [nisin A derivative, hinge substitution M21G]	−	−	−	−
NisinA M21I (ITSISLCTPGCKTGALMGCNIKTATCHCSIHVSK; not fully specified; also: lantibiotic: lanthionine rings and dehydro residues not placed; UniProt P13068 24-57, looked up, variant M21I) [nisin A derivative, hinge substitution M21I]	−	+ (+, 1-5 mm zone)	−	+ (+, 1-5 mm zone)
NisinA M21S (ITSISLCTPGCKTGALMGCNSKTATCHCSIHVSK; not fully specified; also: lantibiotic nisin: dehydrated residues and thioether rings not placed; UniProt P13068 24-57, looked up, variant M21S) [nisin A derivative, hinge substitution M21S]	(+)	+ (+, 1-5 mm zone)	+ (+, 1-5 mm zone)	+ (+, 1-5 mm zone)
